Data as given in ChEMBL document CHEMBL1140525, “Conformationally restricted macrocyclic analogues of combretastatins” (Bioorg Med Chem Lett, 2007).

Columns and labels:
Tubulin (Homo sapiens) [1] = biological target: T1, Tubulin (Homo sapiens) (UniProt P68371+Q9H4B7+P0DPH7+P68366+Q13509+Q71U36+P04350+Q3ZCM7+P07437+P68363+Q9BQE3+Q6PEY2+Q13885+Q9BVA1+Q9BUF5); test: Inhibition of tubulin polymerization at 20 uM; type: protein-complex assay
Tubulin (Homo sapiens) [2] = biological target: T1, Tubulin (Homo sapiens); test: Inhibition of tubulin polymerization at 40 uM; type: protein-complex assay
Tubulin = test: Inhibition of tubulin polymerization; type: protein-complex assay, Homo sapiens
Tubulin (Homo sapiens) [3] = biological target: T1, Tubulin (Homo sapiens); test: Inhibition of tubulin polymerization at 10 uM; type: protein-complex assay
Tubulin (Homo sapiens) [4] = biological target: T1, Tubulin (Homo sapiens); test: Inhibition of tubulin polymerization at 30 uM; type: protein-complex assay

Row | inhibition (Tubulin (Homo sapiens) [2]) [%] | Compound | other results
1 | – | COc1cc2cc(OC)c1OCCCCCCn1ccc3cc(ccc31)[C@@H](OC(C)=O)[C@H]2OC(C)=O | inhibition (Tubulin (Homo sapiens) [1]): 9%
2 | – | COc1cc2cc(OC)c1OCCCCCCn1ccc3cc(ccc31)[C@H](O)[C@H]2O | inhibition (Tubulin (Homo sapiens) [1]): 9%
3 | 2 | COc1cc2cc(OC)c1OCCCCCCOc1ccc(cc1OC(C)=O)[C@H](OC(C)=O)[C@H]2OC(C)=O (relative stereo) | –
4 | – | COc1ccc([C@@H](O)[C@H](O)c2cc(OC)c(OC)c(OC)c2)cc1O | IC50 (Tubulin): > 40 µM
5 | 0 | COc1cc2cc(OC)c1OCCOCCOc1ccc(cc1)[C@@H]1OC(C)(C)O[C@H]21 | –
6 | – | COc1ccc([C@@H]2OCO[C@H]2c2cc(OC)c(OC)c(OC)c2)cc1O | IC50 (Tubulin): 4 µM
7 | 0 | COc1cc2cc(OC)c1OCCOCCOc1ccc(cc1)[C@@H](OC(C)=O)[C@H]2OC(C)=O (relative stereo) | –
8 | – | COc1ccc([C@H](O)[C@@H](O)c2cc(OC)c(OC)c(OC)c2)cc1O | IC50 (Tubulin): 22 µM
9 | 11 | COc1cc2cc(OC)c1OCCOCCOc1ccc(cc1O)[C@@H](O)[C@H]2O (relative stereo) | –
10 | 60 | COc1cc2cc(OC)c1OCCCCCCOc1ccc(cc1)/C=C\2 | –
11 | 0 | COc1cc2cc(OC)c1OCCCCCCOc1ccc(cc1)[C@H](OC(C)=O)[C@H]2OC(C)=O | –
12 | – | COc1cc2cc(OC)c1OCCCCCCn1ccc3cc(ccc31)/C=C\2 | inhibition (Tubulin (Homo sapiens) [3]): 19%
13 | – | COc1cc2cc(OC)c1OCCCCCCn1ccc3cc(ccc31)[C@H](OC(C)=O)[C@H]2OC(C)=O | inhibition (Tubulin (Homo sapiens) [1]): 8%
14 | 1 | COc1cc2cc(OC)c1OCCOCCOc1ccc(cc1O)[C@H](O)[C@H]2O (relative stereo) | –
15 | 0 | COc1cc2cc(OC)c1OCCOCCOc1ccc(cc1OC(C)=O)[C@H](OC(C)=O)[C@H]2OC(C)=O (relative stereo) | –
16 | 0 | COc1cc2cc(OC)c1OCCCCCCOc1ccc(cc1O)/C=C\2 | –
17 | – | COc1ccc(C[C@@H](O)c2cc(OC)c(OC)c(OC)c2)cc1O [COMBRETASTATIN] | IC50 (Tubulin): 5 µM
18 | 0 | COc1cc2cc(OC)c1OCCOCCOc1ccc(cc1)[C@H](OC(C)=O)[C@H]2OC(C)=O (relative stereo) | –
19 | – | COc1cc2cc(OC)c1OCCOCCOc1ccc(cc1)/C=C\2 | inhibition (Tubulin (Homo sapiens) [4]): 0%
20 | 0 | COc1cc2cc(OC)c1OCCOCCOc1ccc(cc1OC(C)=O)[C@@H](OC(C)=O)[C@H]2OC(C)=O (relative stereo) | –
21 | – | COc1ccc(/C=C\c2cc(OC)c(OC)c(OC)c2)cc1 | IC50 (Tubulin): 2.2 µM
22 | 0 | COc1cc2cc(OC)c1OCCOCCOc1ccc(cc1)[C@@H](O)[C@H]2O (relative stereo) | –
23 | 0 | COc1cc2cc(OC)c1OCCOCCOc1ccc(cc1)[C@H](O)[C@H]2O | –
24 | – | COc1cc2cc(OC)c1OCCCCCCn1ccc3cc(ccc31)[C@@H](O)[C@H]2O | inhibition (Tubulin (Homo sapiens) [1]): 11%
25 | – | COc1ccc([C@H]2OCO[C@@H]2c2cc(OC)c(OC)c(OC)c2)cc1O | IC50 (Tubulin): > 50 µM
26 | 4 | COc1cc2cc(OC)c1OCCCCCCOc1ccc(cc1)[C@H](O)[C@H]2O (relative stereo) | –
